# How the values were obtained:
# Format in all cases: physicochemical
# [1] = Thermodynamic (polymorphic) stability on storage, re-analysis by PXRD; details: for thermodynamic stability (conversion to any other solid state form, by XRPD): up to 50° C./80% RH
# Protocol: Thermodynamic stability in relation to crystalline Crisaborole form I refers to less than 20%, 10%, 5%, 2%, 1%, or 0.5% conversion of crystalline Crisaborole form Ito any other solid state form of Crisaborole after exposure of form Ito conditions of up to 50° C./80% RH, e.g. 2-8° C., 25° C./60% RH, 40° C./75% RH for at least 1 month, as measured by XRPD. In some embodiments, the conversion is 1%-20%, 1%-10% or 1%-5%. […] Thermodynamic stability in relation to crystalline Crisaborole form II refers to less than 20%, 10%, 5%, 2%, 1%, or 0.5% conversion of crystalline Crisaborole form II to any other solid state form of Crisaborole after exposure of form II to conditions of up to 50° C./80% RH, e.g. 25° C./60% RH, 40° C./75% RH for at least 2 months, as measured by XRPD. In some embodiments, the conversion is 1%-20%, 1%-10% or 1%-5%. Sample after being powdered in a mortar and pestle is applied directly on a silicon plate holder. The X-ray powder diffraction pattern was measured with Philips X'Pert PRO X-ray powder diffractometer, equipped with Cu irradiation source=1.54184 Å (Angstrom), X'Celerator (2.022° 2θ) detector. Scanning parameters: angle range: 3-40 deg., step size 0.0167, time per step 37 s, continuous scan. Samples of Crisaborole form I were stored for 2 weeks at 25° C. 2-8° C., and for 1 month at different stress conditions: 25° C./60% RH, 40° C./75% RH, 50° C. and 50° C./80% RH.
# Solubility in solvents = assay: Solubility in solvents
# [2] = Chemical stability on storage (impurity profile, HPLC)
# Protocol: HPLC analysis was performed on instrument Agilent 1290, with experimental conditions being set as follows: Samples of Crisaborole form I were stored for 2 weeks at 25° C. 2-8° C., and for 1 month at different stress conditions: 25° C./60% RH, 40° C./75% RH, 50° C. and 50° C./80% RH.
# [3] = Stability at high humidity levels
# Protocol: Moreover, Form I is stable at high humidity levels (e.g. room temperature at 100% RH for 5-7 days), including after milling procedure (e.g. feeding pressure: 6.5 bar; grinding pressure: 6 bar; rotation speed: 300 rpm).
# [4] = Hygroscopicity (water absorption, European Pharmacopoeia 7.0, chapter 01/2008:51100); details: non-hygroscopic = less than 0.2% (w/w) water absorption after 24 h exposure to 25° C./80% RH
# Protocol: As used herein the term non-hygroscopic in relation to crystalline Crisaborole refers to less than 0.2% (w/w) of water absorption after 24 h exposure to 25° C./80% RH, determined according to European Pharmacopoeia 7.0, chapter 01/2008:51100. Water can be for example atmospheric water.
# [5] = Mechanical stability (stress, re-analysis by PXRD)
# Protocol: Sample after being powdered in a mortar and pestle is applied directly on a silicon plate holder. The X-ray powder diffraction pattern was measured with Philips X'Pert PRO X-ray powder diffractometer, equipped with Cu irradiation source=1.54184 Å (Angstrom), X'Celerator (2.022° 2θ) detector. Scanning parameters: angle range: 3-40 deg., step size 0.0167, time per step 37 s, continuous scan.
structure (smiles),measurement,setting,value
"N#Cc1ccc(Oc2ccc3c(c2)COB3O)cc1 [Crisaborole form I, 5-(4-Cyanophenoxy)-1,3-dihydro-1-hydroxy-2,1-benzoxaborole]",PXRD after storage,[1]; 1 month at 25° C./60% RH,unchanged
same,PXRD after storage,[1]; 1 month at 40° C./75% RH,unchanged
same,PXRD after storage,[1]; 1 month at 50° C.,unchanged
same,PXRD after storage,[1]; 1 month at 50° C./80% RH,unchanged
same,PXRD after storage,[1]; 2 weeks at 2-8° C.,unchanged
same,PXRD after storage,[1]; 2 weeks at 25° C.,unchanged
same,"thermodynamic stability (conversion to any other solid state form, by XRPD)","[1]; e.g. 2-8° C., 25° C./60% RH, 40° C./75% RH for at least 1 month",good thermodynamic stability
same,"thermodynamic stability (conversion to any other solid state form, by XRPD)","[1]; e.g. 2-8° C., 25° C./60% RH, 40° C./75% RH for at least 1 month, listed as Crystalline form I of Crisaborole",thermodynamically stable
same,"solubility in N,N-dimethylformamide","Solubility in solvents; N,N-dimethylformamide",very soluble
same,solubility in ethanol,Solubility in solvents; ethanol,freely soluble
same,solubility in isopropanol,Solubility in solvents; isopropanol,freely soluble
same,solubility in propylene glycol,Solubility in solvents; propylene glycol,freely soluble
same,chemical stability,[2],chemically stable
same,impurity profile after storage,[2]; 1 month at 25° C./60% RH,no change in impurity profile
same,impurity profile after storage,[2]; 1 month at 40° C./75% RH,no change in impurity profile
same,impurity profile after storage,[2]; 1 month at 50° C.,no change in impurity profile
same,impurity profile after storage,[2]; 1 month at 50° C./80% RH,no change in impurity profile
same,impurity profile after storage,[2]; 2 weeks at 2-8° C.,no change in impurity profile
same,impurity profile after storage,[2]; 2 weeks at 25° C.,no change in impurity profile
same,stability at high humidity levels after milling procedure,[3]; after milling (feeding pressure 6.5 bar; grinding pressure 6 bar; rotation speed 300 rpm),stable
same,stability at high humidity levels,[3]; room temperature at 100% RH for 5-7 days,stable
same,hygroscopicity,[4],non-hygroscopic
same,"mechanical stability, PXRD after stress",[5]; pressure of 9 tons on 132.67 mm^2 for 2 min,unchanged
same,"mechanical stability, PXRD after stress","[5]; pressure of 9 tons on 132.67 mm^2 for 2 min, listed as Form I",resistant to mechanical stress
same,"mechanical stability, PXRD after stress",[5]; strong grinding using mortar and pestle for 2 min,unchanged
same,"mechanical stability, PXRD after stress","[5]; strong grinding using mortar and pestle for 2 min, listed as Form I",resistant to mechanical stress
same,"mechanical stability, PXRD after stress","[5]; strong grinding with a drop of solvent (e.g. H2O, EtOH) using mortar and pestle for 2 min",unchanged
same,"mechanical stability, PXRD after stress","[5]; strong grinding with a drop of solvent (e.g. H2O, EtOH) using mortar and pestle for 2 min, listed as Form I",resistant to mechanical stress
"N#Cc1ccc(Oc2ccc3c(c2)COB3O)cc1 [Crisaborole form II, 5-(4-Cyanophenoxy)-1,3-dihydro-1-hydroxy-2,1-benzoxaborole]","thermodynamic stability (conversion to any other solid state form, by XRPD)","[1]; e.g. 25° C./60% RH, 40° C./75% RH for at least 2 months",good thermodynamic stability
same,"thermodynamic stability (conversion to any other solid state form, by XRPD)","[1]; e.g. 25° C./60% RH, 40° C./75% RH for at least 2 months, listed as Crystalline form II of Crisaborole",thermodynamically stable
same,stability to polymorphic conversions under high humidity,[3]; high humidity,stable
